According to US12370192B2, “Azole-fused pyridazin-3(2H)-one derivatives” (TAKEDA PHARMACEUTICAL COMPANY LIMITED, priority 2019, dated 2025):

Tests used:
human GPR139 receptor [1] = biological target: T1, human GPR139 receptor (Homo sapiens, UniProt Q6DWJ6); assay: GPR139 Competition Binding (membrane-based, tritium-labeled ligand); conditions: T-REx-CHO membranes with human GPR139; 6.5 nM tritium-labeled ligand; 11-point curve, 30 μM maximum concentration; read-out: GPR139 Binding Affinity (pKi) (converted)
T1 construct: expressed in transfected cells; host or cells: T-REx-CHO (Thermo Fisher Scientific), doxycycline-induced
T1 sequence (Q6DWJ6 1-353): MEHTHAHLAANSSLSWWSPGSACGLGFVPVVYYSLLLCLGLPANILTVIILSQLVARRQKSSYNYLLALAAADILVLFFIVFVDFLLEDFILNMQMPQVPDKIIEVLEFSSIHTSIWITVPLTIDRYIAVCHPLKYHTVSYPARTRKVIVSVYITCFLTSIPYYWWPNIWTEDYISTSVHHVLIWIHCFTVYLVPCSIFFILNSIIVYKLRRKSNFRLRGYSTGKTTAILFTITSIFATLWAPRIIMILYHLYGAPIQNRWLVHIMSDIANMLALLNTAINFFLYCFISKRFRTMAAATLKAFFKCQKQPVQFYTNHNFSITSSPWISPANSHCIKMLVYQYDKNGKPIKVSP
Protocol: OPR139 Competition Binding
This membrane-based assay measures the ability of compounds to competitively bind GPR139 in stably transfected TREx™-CHO membranes. To prepare the membranes, T-REx™-CHO (Thermo Fisher Scientific®) cells are stably expressed with human GPR139 receptor, whose expression is controlled by a tetracycline-inducible element. The cells are cultured in medium containing F-12K nutrient mixture-Kaighn's modification, 10% tetracycline-free FBS, Blasticidin S HCl (10 μg/mL) and Hygromycin B (200 μg/mL). GPR139 receptor expression is induced for 18 hours with 2 μg/mL doxycycline (Sigma D9891) in growth media. After addition of doxycycline, cells are harvested in PBS and pelleted by centrifugation for 5 minutes at 200×G. Liquid is aspirated off and cells are resuspended in ice cold lysis buffer (20 mM HEPES/5 mM EDTA pH 7.4/1× Roche® protease inhibitor). Samples are vortexed until homogenous and then placed on ice and homogenized using a Dounce homogenizer at 50% power (3 cycles, 10 strokes per cycle). Lysate is centrifuged at 4° C. for 10 minutes in a tabletop Sorvall® centrifuge at 2000×G. The supernatant is recovered and centrifuged in a Sorvall® ultracentrifuge at 35,000 rpm for 30 minutes at 4° C. The supernatant is discarded, and the remaining pellet resuspended in lysis buffer (20 mM HEPES/0.1 mM EGTA/Roche® protease inhibitor). Membrane protein concentration is determined using Thermo Fisher® BCA quantification kit and is aliquoted into microtubes. Tubes are snap frozen in liquid nitrogen and stored at −80° C. Prior to use, the membranes are removed from cold storage, thawed to room temperature, vortexed until homogenous and diluted in assay buffer (20 mM HEPES pH 7.3, 5 mM MgCl2, 1 mM CaCl2), 1× Thermo Scientific® Halt™ protease inhibitor (78429)).
The assay is run in 96-well, polypropylene, v-bottom plates (Greiner Bio-One® 651201). Test compound in DMSO is added to the wells of each plate (11-point dose response curve, 30 μM maximum concentration, 3-fold serial dilution). A fixed amount of tritium-labeled ligand, (S)-2-(2,3-dimethyl-7-oxothieno[2,3-d]pyridazin-6(7H)-yl)-N-(1-(4-methoxyphenyl-2-t)propan-2-yl)acetamide (Quotient Bioresearch) in assay buffer (6.5 nM assay concentration) is added to each well of the assay plate, which is then agitated on a plate shaker for 30 seconds. Next, a fixed amount of membranes in assay buffer (2 μg membranes) is added to each well of the assay plate, which is then spun for 30 seconds at 300 rpm in a tabletop Eppendorf centrifuge, and then incubated at room temperature for 20 minutes. Using a Tomtec harvester, the contents of the assay plate are transferred to Filtermat A (PerkinElmer® No. 1450-421) which prior to use is pre-soaked in 0.5% PEI (Sigma P3143) for 3 hours and dried at room temperature overnight. Following transfer, the Filtermat is washed 5 times with cold wash buffer (20 mM HEPES pH 7.3, 100 mM NaCl). The Filtermat is dried using a microwave oven and placed in a sample bag (PerkinElmer® No. 1450-432) with a scintillator sheet (PerkinElmer® No. 1450-411). The scintillator sheet is melted to the Filtermat using a heat block set to 65° C., placed in a MicroBeta® cartridge and read using a MicroBeta® scintillation counter. Binding curves are generated with a four-parameter logistic equation using GraphPad Prism® 6 and the inhibition constant Ki is reported as pKi.

human GPR139 receptor [2] = biological target: T1, human GPR139 receptor; assay: Measurement of GPR139 Activation Via Calcium Signaling (FLIPR, T-REx-CHO cells); type: cell-based; conditions: T-REx-CHO cells stably expressing human GPR139, 11-point dose response, 10 μM maximum concentration, read-out: GPR139 Potency (pEC50) (converted)
Protocol: Measurement of GPR139 Activation Via Calcium Signaling
This cell-based assay measures the ability of compounds to activate GPR139 in stably transfected T-REx™-CHO cells. T-REx™-CHO cells (Thermo Fisher Scientific®) are stably expressed with human GPR139 receptor, whose expression is controlled by a tetracycline-inducible element. The cells are cultured in medium containing F-12K nutrient mixture-Kaighn's modification, TripleLE™ Express (1×)-phenol red, Dulbecco's phosphate-buffered saline (1×), 10% tetracycline-free FBS, Blasticidin S HCl (10 μg/mL) and Hygromycin B (200 μg/mL). The cells are introduced into the wells of a 384-well black clear bottom plate (Costar®) at 10,000 cells/well. GPR139 receptor expression is induced with 2 μg/mL doxycycline (Sigma D9891). The plate is allowed to stand at room temperature for 10-30 minutes and then incubated at 37° C. and 5% CO2 for 17 hours prior to assay.
Culture media is removed from cells and 45 μL of 1× calcium dye (2.5 mM) is added to each well and incubated at 37° C. and 5% CO2 for 40 minutes. The plate is removed from the incubator and allowed to stand at RT for 20 minutes without a plate cover prior to measurement of calcium signaling. The calcium dye is prepared by adding 10 mL of assay buffer (Hank's Balanced Salt Solution (1×), 1 mM HEPES at pH 7.4) to one vial of calcium dye (FLIPR® Calcium 5 Assay Kit; Molecular Devices) at room temperature, vortexing the mixture until homogenous, and transferring the dye to a 250 mL flask using 10 mL of assay, buffer to rinse the vial. The dye is subsequently transferred to a conical flask, which is filled to the 200 mL mark with assay buffer, and 1 mL of […] probenecid solution (142.68 mg/mL in 1M NaOH aq) is added.
Example compounds suspended in DMSO are received from compound management in microtiter plates (0.25 μL/well) and are diluted in assay buffer (25 μL). Following incubation of the cell plate, the Example compounds are added to the cells (11-point dose response, 10 μM maximum concentration) using a FLIPR® Tetra system (Molecular Devices) and fluorescence is measured continuously for 1 minute. EC50 curves are generated with a four-parameter logistic equation using GraphPad Prism® 6, and activation of GPR139 for each example compound is reported as pEC50.

Compound	Ki (human GPR139 receptor [1]) [nM]	EC50 (human GPR139 receptor [2]) [nM]
Cc1nn(C2CC2)c2cnn(CC(=O)N[C@H](C)c3ccc(C(F)(F)F)cc3)c(=O)c12 [Example 160, (R)-2-(1-cyclopropyl-3-methyl-4-oxo-1,4-dihydro-5H-pyrazolo[3,4-d]pyridazin-5-yl)-N-(1-(4-(trifluoromethyl)phenyl)ethyl)acetamide]	30200	295
[2H]C([2H])([2H])c1ccc([C@H](C)NC(=O)Cn2ncc3c(c(C)nn3C(C)C)c2=O)cc1 [Example 168, (S)-2-(1-isopropyl-3-methyl-4-oxo-1,4-dihydro-5H-pyrazolo[3,4-d]pyridazin-5-yl)-N-(1-(4-(Methyl-d3)phenyl)ethyl)acetamide]	380	43.7
Cc1ccc([C@H](C)NC(=O)Cn2ncc3c(C)nn(C(C)C)c3c2=O)cc1 [Example 23]	102	166
COc1ccc([C@H](C)NC(=O)Cn2ncc3ccn(C)c3c2=O)cc1 [Example 163, (S)—N-(1-(4-methoxyphenyl)ethyl)-2-(1-methyl-7-oxo-1,7-dihydro-6H-pyrrolo[2,3-d]pyridazin-6-yl)acetamide]	1780	15.5
Cc1ccc([C@H](C)NC(=O)Cn2nc(C)c3c(cnn3C3CC3)c2=O)c(F)c1 [Example 81, (S)-2-(1-cyclopropyl-7-methyl-4-oxo-1,4-dihydro-5H-pyrazolo[3,4-d]pyridazin-5-yl)-N-(1-(2-fluoro-4-methylphenyl)ethyl)acetamide]	331	145
Cc1ccc([C@H](C)NC(=O)Cn2ncc3c(ncn3C)c2=O)cc1 [Example 140, (S)-2-(1-methyl-4-oxo-1,4-dihydro-5H-imidazo[4,5-d]pyridazin-5-yl)-N-(1-(p-tolyl)ethyl)acetamide]	30200	525
Cc1ccc([C@H](C)NC(=O)Cn2nc(C)c3c(c(C)nn3C)c2=O)cc1 [Example 113, (S)—N-(1-(p-tolyl)ethyl)-2-(1,3,7-trimethyl-4-oxo-1,4-dihydro-5H-pyrazolo[3,4-d]pyridazin-5-yl)acetamide]	178	151
Cc1nn(CC(=O)N[C@@H](C)c2ccc(C(F)(F)F)cn2)c(=O)c2c1c(C)nn2C [Example 102, (S)—N-(1-(5-(trifluoromethyl)pyridin-2-yl)ethyl)-2-(1,3,4-trimethyl-7-oxo-1,7-dihydro-6H-pyrazolo[3,4-d]pyridazin-6-yl)acetamide]	15100	209
COc1ccc([C@H](C)NC(=O)Cn2nc(C)c3c(c(C4CC4)nn3C)c2=O)cc1 [Example 121, (S)-2-(3-cyclopropyl-1,7-dimethyl-4-oxo-1,4-dihydro-5H-pyrazolo[3,4-d]pyridazin-5-yl)-N-(1-(4-methoxyphenyl)ethyl)acetamide]	74.1	129
COc1cc([C@H](C)NC(=O)Cn2ncc3c(c(C)nn3C3CC3)c2=O)ccc1F [Example 132, (S)-2-(1-cyclopropyl-3-methyl-4-oxo-1,4-dihydro-5H-pyrazolo[3,4-d]pyridazin-5-yl)-N-(1-(4-fluoro-3-methoxyphenyl)ethyl)acetamide]	2240	708
Cc1ccc([C@H](C)NC(=O)Cn2ncc3c(c(C(F)(F)F)nn3C)c2=O)cc1 [Example 169, (S)-2-(1-methyl-4-oxo-3-(trifluoromethyl)-1,4-dihydro-5H-pyrazolo[3,4-d]pyridazin-5-yl)-N-(1-(p-tolyl)ethyl)acetamide]	75.9	51.3
Cc1ccc([C@H](C)NC(=O)Cn2ncc3ccn(C)c3c2=O)c(F)c1 [Example 165, (S)—N-(1-(2-fluoro-4-methylphenyl)ethyl)-2-(1-methyl-7-oxo-1,7-dihydro-6H-pyrrolo[2,3-d]pyridazin-6-yl)acetamide]	70.8	12.6
Cc1ccc(C)c([C@H](C)NC(=O)Cn2ncc3c(c(C)nn3C3CC3)c2=O)c1 [Example 26, (S)-2-(1-cyclopropyl-3-methyl-4-oxo-1,4-dihydro-5H-pyrazolo[3,4-d]pyridazin-5-yl)-N-(1-(2,5-dimethylphenyl)ethyl)acetamide]	38900	933
C[C@H](NC(=O)Cn1ncc2c(C3CC3)nn(C)c2c1=O)c1cccc(F)c1 [Example 148, (S)-2-(3-cyclopropyl-1-methyl-7-oxo-1,7-dihydro-6H-pyrazolo[3,4-d]pyridazin-6-yl)-N-(1-(3-fluorophenyl)ethyl)acetamide]	589	20
Cc1nn(C2CC2)c2cnn(CC(=O)N[C@@H](C)c3c(F)cccc3Cl)c(=O)c12 [Example 136, (S)—N-(1-(2-chloro-6-fluorophenyl)ethyl)-2-(1-cyclopropyl-3-methyl-4-oxo-1,4-dihydro-5H-pyrazolo[3,4-d]pyridazin-5-yl)acetamide]	81.3	91.2
C[C@H](NC(=O)Cn1ncc2ccn(C)c2c1=O)c1ccc(C(F)(F)F)cc1 [Example 164, (S)-2-(1-methyl-7-oxo-1,7-dihydro-6H-pyrrolo[2,3-d]pyridazin-6-yl)-N-(1-(4-(trifluoromethyl)phenyl)ethyl)acetamide]	200	–
Cc1nn(C2CC2)c2cnn(CC(=O)N[C@H](c3ccccc3)C3CC3)c(=O)c12 [Example 173, (S)—N-(cyclopropyl(phenyl)methyl)-2-(1-cyclopropyl-3-methyl-4-oxo-1,4-dihydro-5H-pyrazolo[3,4-d]pyridazin-5-yl)acetamide]	30200	–
